Patent US9682940B2, “Indazole derivatives useful as CB-1 inverse agonists” (Janssen Pharmaceutica NV, priority 2015, dated 2017)

Key:
[1] = biological target: Human CB1R (Cannabanoid receptor 1) (Homo sapiens (Human), UniProt P21554); experiment: CB-1 in vitro cAMP (HTRF) assay in HEK-293 cells; type: cell-based; settings: HEK-293 cells stably transfected with human CB1R, 250 nM Forskolin, mean where tested more than once, read-out: CB-1 (HEK_cAMP) EC50
Excerpt: (§1) CB1 and CB2 receptors are Gi-coupled GPCR. Activation of CB1 and CB2 receptors results in a decrease in cAMP production. An inverse agonist of the CB1 or CB2 receptor results in the opposite effect, an increase of cAMP production. The principle of this assay is based on HTRF® technology (Homogeneous Time-Resolved Fluorescence). The method is a competitive immunoassay between native cAMP produced by cells and the cAMP labeled with the fluorophore d2. The tracer binding is quantified by a Mab anti-cAMP labeled with Eu3+TBP-NHS Cryptate (supplied as part of the assay kit). The specific signal (i.e. energy transfer) is inversely proportional to the concentration of cAMP in the standard or sample.
(§2) Human CB1R (Cannabanoid receptor 1) was stably transfected in HEK-293 cells (DiscoveRx, cat: 93-0200C1). Human CB2R (Cannabanoid receptor 2) was stably transfected in HEK-293 cells (DiscoveRx, cat: 93-0201C1). Cell cultures were maintained in media: DMEM (Invitrogen Cat#12430-054) supplemented with 10% HI FBS (Invitrogen Cat#16140-071), 1% L-glutamine (Invitrogen Cat#25030-081), 0.2 mg/ml Hygromycin B (Invitrogen Cat#10687-010), 600 μg/mL G418 (Invitrogen Cat#10131-035), and 1× Penn/Strep (Invitrogen 15140-122). After cell expansion, aliquots were cryo-stored in media containing 5% DMSO (Pierce Cat#20684).
(§3) One day prior to experiments media was warmed to 37° C. and the cryo-stored cells were thawed in a 37° C. water bath. The cells were then added to media (10× volume) and the mixture was centrifugated at 1000 RPM for 5 min. The supernate was removed and the cells were re-suspended in media. A sample of the cell suspension was evaluated on a Cedex XS automated cell counter (Innovatis Systems) to determine viable cells/ml. Additional media was added to the cells to achieve a final cell density of 4E5 cells/mL. The cells were then plated into 384 well PDL white solid bottom plates (Greiner, Cat#781945) at 20 μL per well using a Multidrop (Thermo Scientific). Cells were removed from Row P (location of cAMP standards). Two columns of cells were plated into a clear bottom 384 well PDL coated plate (Greiner, Cat#781944) to view confluence the day of the assay. The cell plates were lidded and stored for 15 minutes in a hood, then transferred to an incubator (37° C., 5% CO2, 95% humidity) overnight.
(§4) DMSO was added to all wells of 384 well V bottom polystyrene plate (Greiner, Cat#781280) except to columns 1 and 13, rows O and P and wells M13-M23 and N13-N23. Test compounds (60 μL, 10 mM) were added to Column 1 and 13 (A1 through N1 and A13 through L13). Test compounds were serially diluted 1/3 by transferring and mixing 20 μl sample with 40 μL DMSO.
(§5) DMSO (40 μL) was added to wells of 384 well V bottom polystyrene plate: O2 through O11, M14 through M23, N14 through N23, and O14 through 023. AM630 (also known as [6-iodo-2-methyl-1-[2-(4-morpholinyl)ethyl]-1H-indol-3-yl](4-methoxyphenyl)-methanone, Cayman Chemical, Cat#10006974) (60 μL, 10 mM) was added to 01; and 1-(2,4-dichlorophenyl)-7-[(4-fluorophenyl)methylene]-4,5,6,7-tetrahydro-N-1-piperidinyl-1H-indazole-3-carboxamide (60 μL, 10 mM) was added to N13. The control was serially diluted 1/3 by transferring and mixing 20 μl sample with 40 μL DMSO. This process resulted 11 doses per control, 10 mM to […].
(§6) Cells plated the day prior to the assay in clear bottom plates were viewed on an inverse microscope to ensure confluency in the range of 60-75%. […]

[2] = biological target: Human CB2R (Cannabanoid receptor 2) (Homo sapiens (Human), UniProt P34972); experiment: CB-2 in vitro cAMP (HTRF) assay in HEK-293 cells; type: cell-based; settings: HEK-293 cells stably transfected with human CB2R, 250 nM Forskolin, mean where tested more than once, read-out: CB-2 (HEK_cAMP) EC50
Excerpt: as §1, §2, §3, §4, §5, §6

Human CB1R (Cannabanoid receptor 1), sequence (P21554 whole entry): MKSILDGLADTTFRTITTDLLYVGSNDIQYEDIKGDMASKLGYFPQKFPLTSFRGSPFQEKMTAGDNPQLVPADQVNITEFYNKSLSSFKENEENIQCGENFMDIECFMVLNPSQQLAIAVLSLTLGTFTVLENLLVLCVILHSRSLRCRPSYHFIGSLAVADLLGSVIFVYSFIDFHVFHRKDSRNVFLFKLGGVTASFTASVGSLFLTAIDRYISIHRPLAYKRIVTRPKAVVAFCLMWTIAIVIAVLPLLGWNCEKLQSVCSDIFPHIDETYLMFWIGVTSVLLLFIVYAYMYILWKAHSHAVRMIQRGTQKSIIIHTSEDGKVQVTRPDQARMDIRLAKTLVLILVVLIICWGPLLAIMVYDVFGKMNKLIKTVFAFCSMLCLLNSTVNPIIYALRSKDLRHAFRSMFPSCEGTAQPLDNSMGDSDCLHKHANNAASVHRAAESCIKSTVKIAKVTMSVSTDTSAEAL
Human CB2R (Cannabanoid receptor 2), sequence (P34972 whole entry): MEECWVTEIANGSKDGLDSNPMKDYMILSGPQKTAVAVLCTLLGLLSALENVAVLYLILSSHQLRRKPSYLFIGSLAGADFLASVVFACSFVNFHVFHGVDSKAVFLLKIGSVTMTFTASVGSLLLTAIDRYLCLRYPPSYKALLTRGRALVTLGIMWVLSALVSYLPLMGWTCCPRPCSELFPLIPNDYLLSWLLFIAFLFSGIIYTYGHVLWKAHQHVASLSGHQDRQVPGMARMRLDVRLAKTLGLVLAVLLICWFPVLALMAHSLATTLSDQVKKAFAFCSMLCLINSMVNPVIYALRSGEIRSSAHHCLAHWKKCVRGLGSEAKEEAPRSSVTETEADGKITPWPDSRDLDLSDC

SMILES | EC50 [1] [nM] | EC50 [2] [nM]
O=C(NC1CCCC1)N1CCC(c2n[nH]c3ccc(C(c4ccc(Cl)cc4)c4ccc(Cl)cc4)cc23)CC1 [Compound 263] | 234 | 2330
O=S(=O)(C(F)F)N1CCC(c2n[nH]c3ccc(C(c4ccc(Cl)cc4)c4ccc(Cl)cc4)cc23)CC1 [Compound 81] | 7320 | > 10000
NC(=O)Cc1ccc(N2CCC(c3c4cc(C(c5ccc(Cl)cc5)c5ccc(Cl)cc5)ccc4nn3C3CC3)CC2)cc1 [Compound 186] | 59 | > 10000
O=C(CCO)N1CCC(c2nn(C3CC3)c3ccc(C(c4ccc(Cl)cc4)c4ccc(Cl)cc4)cc23)CC1 [Compound 108] | 37 | > 10000
O=C(O)c1ccc(C(c2ccc(Cl)cc2)c2ccc3[nH]nc(C4CCN(S(=O)(=O)C(F)(F)F)CC4)c3c2)cn1 (stereo not shown) [Compound 241] | 1630 | > 10000
NC(=O)c1ccccc1S(=O)(=O)N1CCC(c2nn(C3CC3)c3ccc(C(c4ccc(Cl)cc4)c4ccc(Cl)cc4)cc23)CC1 [Compound 93] | 533 | > 10000
O=C(O)CC(=O)N1CCC(c2nn(C3CC3)c3ccc(C(c4ccc(Cl)cc4)c4ccc(Cl)cc4)cc23)CC1 [Compound 102] | 477 | > 10000
O=C(Oc1ccccc1)N1CCC(c2n[nH]c3ccc(C(c4ccc(Cl)cc4)c4ccc(Cl)cc4)cc23)CC1 [Compound 267] | 79 | > 2000
NC(=O)c1csc(CN2CCC(c3c4cc(C(c5ccc(Cl)cc5)c5ccc(Cl)cc5)ccc4nn3C3CC3)CC2)c1 [Compound 237, 5-((4-(5-(bis(4-chlorophenyl)methyl)-2-cyclopropyl-2H-indazol-3-yl)piperidin-1-yl)methyl)thiophene-3-carboxamide] | 5 | > 10000
O=S(=O)(N1CCC(c2nn(-c3ccc(F)cc3)c3ccc(C(c4ccc(F)cc4)c4ccc(Cl)cc4)cc23)CC1)C(F)(F)F (stereo not shown) [Compound 50] | 59 | > 10000
NC(=O)CS(=O)(=O)N1CCC(c2n[nH]c3ccc(C(c4ccc(Cl)cc4)c4ccc(Cl)cc4)cc23)CC1 [Compound 25] | 1230 | > 10000
O=C(O)c1cccc(C(=O)N2CCC(c3c4cc(C(c5ccc(Cl)cc5)c5ccc(Cl)cc5)ccc4nn3C3CC3)CC2)c1 [Compound 111] | 3500 | > 10000
O=S(=O)(N1CCC(c2n[nH]c3ccc(C(c4ccc(Cl)cc4)C4CCCC4)cc23)CC1)C(F)(F)F (stereo not shown) [Compound 279] | 785 | > 42000
NC(=O)c1ccc(-n2nc(C3CCN(S(=O)(=O)C(F)(F)F)CC3)c3cc(C(c4ccc(Cl)cc4)c4ccc(Cl)cc4)ccc32)cc1 [Compound 205] | 6 | 2120
O=S(=O)(N1CCC(c2nn(-c3nccs3)c3ccc(C(c4ccc(Cl)cc4)c4ccc(Cl)cc4)cc23)CC1)C(F)(F)F [Compound 37] | 8 | > 10000
O=C(O)c1ccccc1S(=O)(=O)N1CCC(c2c3cc(C(c4ccc(Cl)cc4)c4ccc(Cl)cc4)ccc3nn2C2CC2)CC1 [Compound 123] | 5800 | > 10000
NC(=O)c1ccc(S(=O)(=O)N2CCC(c3c4cc(C(c5ccc(Cl)cc5)c5ccc(Cl)cc5)ccc4nn3C3CC3)CC2)cc1F [Compound 167, 4-(4-(5-(bis(4-chlorophenyl)methyl)-2-cyclopropyl-2H-indazol-3-yl)piperidin-1-ylsulfonyl)-2-fluorobenzamide] | 12 | > 10000
O=C(O)c1cccc(CN2CCC(c3n[nH]c4ccc(C(c5ccc(Cl)cc5)c5ccc(Cl)cc5)cc34)C2)c1 (stereo not shown) [Compound 272] | 333 | > 10000

SMILES | EC50 [1] [nM] | EC50 [2] [nM]
NC(=O)c1ccc(N2CCC(c3c4cc(C(c5ccc(Cl)cc5)c5ccc(Cl)cc5)ccc4nn3C3CC3)CC2)cc1 [Compound 194, 4-(4-(5-(bis(4-chlorophenyl)methyl)-2-cyclopropyl-2H-indazol-3-yl)piperidin-1-yl)benzamide] | 48 | > 10000
O=C(O)Cc1cccc(N2CCC(c3n[nH]c4ccc(C(c5ccc(Cl)cc5)c5ccc(Cl)cc5)cc34)CC2)c1 [Compound 214] | 3240 | > 10000
COc1ccc(S(=O)(=O)N2CCC(Nc3n[nH]c4ccc(C(c5ccc(Cl)cc5)c5ccc(Cl)cc5)cc34)CC2)cc1 [Compound 119] | 144 | > 10000
CC(C)(C)OC(=O)N1CCC(Nc2n[nH]c3ccc(C(c4ccc(Cl)cc4)c4ccc(Cl)cc4)cc23)CC1 [Compound 74] | 162 | > 10000
CC(C)(C)OC(=O)N1CCC(c2nn(CCO)c3ccc(C(c4ccc(Cl)cc4)c4ccc(Cl)cc4)cc23)CC1 [Compound 76] | 112 | > 10000
NC(=O)Cc1ccc(N2CCC(c3n[nH]c4ccc(C(c5ccc(Cl)cc5)c5ccc(Cl)cc5)cc34)CC2)cc1 [Compound 223] | 699 | > 10000
O=S(=O)(c1ccccc1O)N1CCC(c2c3cc(C(c4ccc(Cl)cc4)c4ccc(Cl)cc4)ccc3nn2C2CC2)CC1 [Compound 149, 2-(4-(5-(bis(4-chlorophenyl)methyl)-2-cyclopropyl-2H-indazol-3-yl)piperidin-1-ylsulfonyl)phenol] | 7 | > 10000
O=C(O)CS(=O)(=O)N1CCC(c2n[nH]c3ccc(C(c4ccc(Cl)cc4)c4ccc(Cl)cc4)cc23)CC1 [Compound 22] | 249 | > 10000
NC(=O)CC(=O)N1CCC(c2nn(C3CC3)c3ccc(C(c4ccc(Cl)cc4)c4ccc(Cl)cc4)cc23)CC1 [Compound 90] | 716 | 3100
O=S(=O)(c1ccc(C(F)(F)F)cc1)N1CCC(c2n[nH]c3ccc(C(c4ccc(Cl)cc4)c4ccc(Cl)cc4)cc23)CC1 [Compound 32] | 71 | > 10000
O=C(O)CC(=O)N1CCC(c2n[nH]c3ccc(C(c4ccc(Cl)cc4)c4ccc(Cl)cc4)cc23)CC1 [Compound 41] | 1650 | > 10000
NC(=O)c1ccc(N2CCC(c3n[nH]c4ccc(C(c5ccc(Cl)cc5)c5ccc(Cl)cc5)cc34)CC2)cc1 [Compound 208] | 68 | > 10000
O=C(O)c1ccc(S(=O)(=O)N2CCC(c3n[nH]c4ccc(C(c5ccc(Cl)cc5)c5ccc(Cl)cc5)cc34)C2)o1 (stereo not shown) [Compound 270] | 9600 | > 10000
O=S(=O)(N1CCC(c2nn(-c3cccc(Cl)c3)c3ccc(C(c4ccc(Cl)cc4)c4ccc(Cl)cc4)cc23)CC1)C(F)(F)F [Compound 47] | 41 | > 10000
NC(=O)c1ccc(S(=O)(=O)N2CCC(c3c4cc(C(c5ccc(Cl)cc5)c5ccc(Cl)cc5)ccc4nn3C3CC3)CC2)o1 [Compound 172, 5-(4-(5-(bis(4-chlorophenyl)methyl)-2-cyclopropyl-2H-indazol-3-yl)piperidin-1-ylsulfonyl)furan-2-carboxamide] | 3 | > 10000
NC(=O)c1ccccc1S(=O)(=O)N1CCC(c2n[nH]c3ccc(C(c4ccc(Cl)cc4)c4ccc(Cl)cc4)cc23)CC1 [Compound 40] | 297 | 10200
COC(=O)c1ccc(S(=O)(=O)N2CCC(c3n[nH]c4ccc(C(c5ccc(Cl)cc5)c5ccc(Cl)cc5)cc34)CC2)o1 [Compound 260] | 25 | > 42000
